Reference: article PMC3991331, “Fragment screening reveals salicylic hydroxamic acid as an inhibitor of Trypanosoma brucei GPI GlcNAc-PI de-N-acetylase” (Carbohydrate Research, 2014)
Where two headings read alike, the source gives them in different places.

Columns and labels:
[1] = target: T. brucei de-N-acetylase (cell-free system) (Trypanosoma brucei, UniProt Q8I8A5); experiment: Mass spectrometry based activity assay, trypanosome cell-free system; format: biochemical; details: for inhibition at 1000 µM: read-out: Inhibition at 1 mM (%); for ligand efficiency: from IC50 in cell-free system
Description: Inhibition assays were performed in 100 μL final volume, with 1% v/v DMSO with or without inhibitor. […] Enriched glycolipids were analysed by liquid chromatography coupled to an electrospray tandem mass spectrometer (LC–MS/MS). Samples (40 μL) were injected on to a 10 × 1 mm C18 column (ACE, 5 μM) and eluted using a binary gradient of 5–80% propan-1-ol in 5 mM NH4OAc (Dionex Ultimate 3000). The gradient consisted of 2 min 0% B, 2–4 min 0–100% B, 4–8 min 100%, 8–9 min 100–0% B, 9–10 min 0% B where buffer A consisted of 5% propan-1-ol, 5 mM NH4OAc and buffer B 80% propan-1-ol, 5 mM NH4OAc. The glycolipids were analysed on an electrospray triple quadrapole mass spectrometer (Micromass Quattro Ultima) in multiple reaction monitoring mode. […] Inhibitor IC50 values were calculated using a four-parameter fit of eight-point potency curves derived from three independent experiments, and are quoted with standard deviation. […]

[2] = test system: bloodstream form T. brucei; set-up: method as in PMID 986688, PMID 17126803; details: cited from earlier work
[3] = target: T1, recombinant T. brucei GlcNAc-PI de-N-acetylase (GST-TbGPI12) (Trypanosoma brucei, UniProt Q8I8A5); experiment: Mass spectrometry based activity assay, recombinant GST-TbGPI12; format: biochemical
Description: Inhibition assays were performed in 100 μL final volume, with 1% v/v DMSO with or without inhibitor. […]. Enriched glycolipids were analysed by liquid chromatography coupled to an electrospray tandem mass spectrometer (LC–MS/MS). Samples (40 μL) were injected on to a 10 × 1 mm C18 column (ACE, 5 μM) and eluted using a binary gradient of 5–80% propan-1-ol in 5 mM NH4OAc (Dionex Ultimate 3000). The gradient consisted of 2 min 0% B, 2–4 min 0–100% B, 4–8 min 100%, 8–9 min 100–0% B, 9–10 min 0% B where buffer A consisted of 5% propan-1-ol, 5 mM NH4OAc and buffer B 80% propan-1-ol, 5 mM NH4OAc. The glycolipids were analysed on an electrospray triple quadrapole mass spectrometer (Micromass Quattro Ultima) in multiple reaction monitoring mode. The turnover of the substrate GlcNAc-IPC18 (m/z 715 > 223) to GlcN-IPC18 (m/z 672 > 223) was used to calculate the percentage of substrate conversion to product in a given sample.[6] Inhibitor IC50 values were calculated using a four-parameter fit of eight-point potency curves derived from three independent experiments, and are quoted with standard deviation. […]
Figure 2 T. brucei GlcNAc-PI de-N-acetylase inhibitors. The activity of the recombinant enzyme against the synthetic substrate D-glucosamine-α-(1-6)-D-myo-inositol-1-octadecyl phosphate was measured using a mass spectrometry based assay (A) Fragments were screened at 1 mM in duplicate. […]

[4] = test system: T. brucei GPI pathway (cell-free system); experiment: Trypanosome cell-free system assay, [3H]-mannose incorporation into GPI intermediates (HPTLC, fluorography); details: GlcNAc-IPC18 10 μM; GDP-[3H]-mannose; tested at 0, 100, 300, 1000 μM
Description: Trypanosome cell-free system assays, where the formation of GPI precursors is monitored by following the incorporation of [^3H]-mannose were analysed using high-performance liquid chromatography and fluorography as described previously.[13]
Priming the cell-free system with GlcAc-IPC18 in the presence of GDP-[^3H]-mannose stimulates the production of radiolabelled mannosylated GPI intermediates that can be separated by high performance thin-layer chromatography and visualised by fluorography.
(A) The T. brucei cell-free system was incubated with GlcNAc-PI (10 μM) in the presence of 0, 100, 300, or 1000 μM of 1 and 0.5 μCi of GDP-[^3H]-mannose to stimulate the production of radiolabelled mannosylated GPI intermediates. Glycolipid products were extracted, separated by high-performance thin-layer chromatography, and visualised by fluorography. DPM–dolichol-phosphate-mannose, M1–Man1GlcN-IPC18, M2–Man2GlcN-IPC18, M3–Man3GlcN-IPC18, A′–EtNPMan3GlcN-IPC18. (B) Inhibition of the turnover of GlcNAc-IPC18 (10 μM) by the presence of 1 measured in the T. brucei cell-free system in the LC–MS/MS assay.

[5] = target: T1, recombinant T. brucei GlcNAc-PI de-N-acetylase (GST-TbGPI12); set-up: method as in PMID 22222041; details: previously reported glucocyclitol-phospholipid substrate analogue; cited from earlier work
[6] = 1 mM, cell-free system, Table 1, commercially available analogues of 1
[7] = 1 mM, fragment library screen, Table S1, footnote: cell-free system

Sequence of T. brucei de-N-acetylase (cell-free system) (Q8I8A5 entry or part of it): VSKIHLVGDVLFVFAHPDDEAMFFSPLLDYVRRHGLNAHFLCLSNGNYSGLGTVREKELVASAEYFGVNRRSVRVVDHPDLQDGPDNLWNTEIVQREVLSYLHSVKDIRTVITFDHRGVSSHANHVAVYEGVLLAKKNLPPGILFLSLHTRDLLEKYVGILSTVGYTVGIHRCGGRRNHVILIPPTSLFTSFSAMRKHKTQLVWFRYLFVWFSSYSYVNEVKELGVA
T1 sequence (Q8I8A5 entry or part of it): as above

Row | Structure (SMILES) | inhibition at 1000 µM [1] [%] | melting point [°C] | further results
1 | O=C(NO)c1ccc(Br)cc1 [compound 7] | – | – | inhibition at 1000 µM [1, 6]: 9.6 ± 15%
2 | O=C(NO)c1ccccc1O [compound 1, salicylic hydroxamic acid] | 97 ± 2 | – | toxicity in vivo to bloodstream form T. brucei [2]: toxic in vivo; IC50 [3]: 63 ± 4 µM; concentration that prevented priming of the cell-free system with GlcNAc-IPC18 [4]: > 300 µM
3 | Cc1ccc(C(=O)Nc2ccc(O)c(C(=O)NO)c2)cc1 [compound 22, N,2-Dihydroxy-5-(4-methylbenzamido)benzamide] | 62 ± 24 | 209 | –
4 | CCCCCCCCCCCCCCCCCC(=O)Nc1ccc(O)c(C(=O)NO)c1 [compound 23, N,2-Dihydroxy-5-stearamidobenzamide] | 25 ± 14 | 185 to 187 | –
5 | COc1ccc(NC(=O)NO)cc1 [compound 503] | – | – | inhibition at 1000 µM [1, 7]: 53 ± 2%
6 | O=C(NO)c1cc(NC(=O)C2CCCCC2)ccc1O [compound 20, 5-(Cyclohexanecarboxamido)-N,2-dihydroxybenzamide] | 99 ± 1.6 | 229 to 230 | ligand efficiency [1]: −0.30 kcal mol^−1 per non-hydrogen atom
7 | O=C(NO)c1ccc(Br)cc1O [compound 6] | – | – | inhibition at 1000 µM [1, 6]: 86 ± 2%
8 | O=C(Nc1ccc(O)c(C(=O)NO)c1)c1ccccc1 [compound 21, 5-Benzamido-N,2-dihydroxybenzamide] | 96 ± 0.4 | 211 | ligand efficiency [1]: −0.29 kcal mol^−1 per non-hydrogen atom
9 | O=C(CCCOc1ccc(Cl)cc1Cl)NO [compound 508] | – | – | inhibition at 1000 µM [1, 7]: 67 ± 20%
10 | CCCCCCCCCCCCCCCCCCOP(=O)(O)O[C@@H]1CCCC[C@H]1O[C@@H]1O[C@H](CO)[C@@H](O)[C@H](O)[C@H]1CC(=O)NO [1R,2R-1-O-[2-C-(carboxymethyl N-hydroxyamide)-2-deoxy-β-D-glucopyranosyl]-cyclohexanediol 2-(n-octadecylphosphate), reference compound] | – | – | ligand efficiency ([3]; from the previously reported IC50 of ref 13): −0.13 kcal mol^−1 per non-hydrogen atom; IC50 [5]: 19 ± 0.5 µM
11 | O=C(CCc1nc(-c2ccc(Cl)cc2)no1)NO [compound 514] | – | – | inhibition at 1000 µM [1, 7]: 54 ± 9%
12 | O=C(NO)c1cc(NC(=O)C2CCOCC2)ccc1O [compound 26, N-(4-Hydroxy-3-(hydroxycarbamoyl)phenyl)tetrahydro-2H-pyran-4-carboxamide] | 56 ± 8.3 | 209 | –
13 | O=C(NO)c1ccccc1 [compound 3] | – | – | inhibition at 1000 µM [1, 6]: -6 ± 14%
14 | O=C(Nc1ccc(O)c(C(=O)NO)c1)c1ccc2c(c1)OCO2 [compound 27, N-(4-Hydroxy-3-(hydroxycarbamoyl)phenyl)benzo[d][1,3]dioxole-5-carboxamide] | 86 ± 11 | 209 | –
15 | O=C(NO)C1CCN(c2ncc(C(F)(F)F)cc2Cl)CC1 [compound 513] | – | – | inhibition at 1000 µM [1, 7]: 54 ± 4%
16 | Nc1ccccc1C(=O)NO [compound 5] | – | – | inhibition at 1000 µM [1, 6]: -5 ± 2%
17 | O=C(COc1ccc(Cl)cc1Cl)NO [compound 509] | 62 ± 0.3 | – | –
18 | CC(=O)N1CCC(C(=O)Nc2ccc(O)c(C(=O)NO)c2)CC1 [compound 24, 1-Acetyl-N-(4-hydroxy-3-(hydroxycarbamoyl)phenyl)piperidine-4-carboxamide] | 40 ± 17 | 211 to 212 | –
19 | O=C(O)c1ccccc1O [compound 2] | 25 ± 1 | – | –
20 | O=C(NO)c1ccccc1Br [compound 4] | – | – | inhibition at 1000 µM [1, 6]: -4 ± 15%
21 | O=C(Nc1ccc(O)c(C(=O)NO)c1)c1ccc(-c2ccccc2)cc1 [compound 25, N-(4-Hydroxy-3-(hydroxycarbamoyl)phenyl)-[1,1'-biphenyl]-4-carboxamide] | 75 ± 7 | 216 | –
